The values that follow are results of earlier work, collected in patent publication US20240180821A1, “ORALLY DISINTEGRATING FILM COMPOSITION OF KETOROLAC AND A METHOD OF PREPARATION THEREOF” (LN LABORATORIES PVT LTD, priority 2021, published 2024).

Each structure is given as a SMILES string.

`O=C(c1ccccc1)c1ccc2n1CCC2C(=O)O` (racemic) [Ketorolac tromethamine, (±)-5-Benzoyl-2,3-dihydro-1H-pyrrolizine-1-carboxylic acid, compound with 2-amino-2-(hydroxymethyl)-1,3-propanediol]: the pKa is given as 3.5.
